Results on three compounds are retold here after patent US3943131A, “Trifluoromethylmercaptoacetamidocephalosporins” (SmithKline Corporation, priority 1974, dated 1976).

Common to all, as to type: cell-based
The test system of assay [1] is S. aureus HH 127. The assay can be described thus: MIC in vitro, S. aureus HH 127. The settings on record: Staphylococcus aureus, HH127.
Assay [2] deals with Strep. pyog. C 203. The experiment in a line: MIC in vitro, Strep. pyog. C 203.
In assay [3] the test system is Strep. faecalis HH 34358. The experiment in a line: MIC in vitro, Strep. faecalis HH 34358. The conditions noted are these: Enterococcus faecalis, HH34358.
Assay [4] concerns E. coli. HH 33779. The assay can be described thus: MIC in vitro, E. coli HH 33779. The settings on record: Escherichia coli.
Assay [5] concerns K. pneumo. SK 4200. The assay can be described thus: MIC in vitro, K. pneumo. SK 4200.
Assay [6] deals with Pseudomonas sp. HH 63. The assay can be described thus: MIC in vitro, Pseudomonas sp. HH 63. The settings on record: SP.HH63.
The subject of assay [7] is Entero. aerogenes. The assay can be described thus: MIC in vitro, Entero. aerogenes. The settings on record: Klebsiella aerogenes.
The mark [8] stands for this setting: E. coli. HH 33779, read-out: MIC.

SMILES strings stand for the structures. Values after ≈ are worked out from the molar mass of the structure shown. Like-named read-outs stand apart in the source and are kept apart here.

In the case of `Cc1nnc(SCC2=C(C(=O)O)N3C(=O)C(NC(=O)CSC(F)(F)F)[C@H]3SC2)s1` (stereo partly drawn) [III, 7-trifluoromethylmercaptoacetamido-3-(5-methyl-1,3,4-thiadiazol-2-ylthiomethyl)-3-cephem-4-carboxylic acid], the MIC was 0.4 mg/L (≈ 0.822 µM) in assay [1]; 0.1 mg/L (≈ 0.206 µM) in assay [2]; 12.5 mg/L (≈ 25.7 µM) in assay [3]; 3.1 mg/L (≈ 6.37 µM) in assay [4]; 1.6 mg/L (≈ 3.29 µM) in assay [5]; under 200 mg/L in assay [6]. In assay [7], it took 6.3 mg/L (≈ 12.9 µM) to inhibit growth (MIC).
As for `Cn1nnnc1SCC1=C(C(=O)O)N2C(=O)C(NC(=O)CSC(F)(F)F)[C@H]2SC1` (stereo partly drawn) [II, 7-Trifluoromethylmercaptoacetamido-3-(1-methyl-tetrazol-5-ylthiomethyl)-3-cephem-4-carboxylic acid], the MIC in assay [1] is 0.4 mg/L (≈ 0.85 µM); in assay [2] it was 0.1 mg/L (≈ 0.213 µM); in assay [3] it was 25 mg/L (≈ 53.1 µM); in assay [4] (setting [8]), 1.6 mg/L (≈ 3.4 µM); in assay [5], 0.8 mg/L (≈ 1.7 µM); in assay [6] it was under 200 mg/L. This compound also registered an MIC in assay [7] of 1.6 mg/L (≈ 3.4 µM).
`CC(=O)OCC1=C(C(=O)O)N2C(=O)C(NC(=O)CSC(F)(F)F)C2SC1` (stereo not drawn) [I, 7-trifluoromethylmercaptoacetamidocephalosporanic acid]: the MIC in assay [1] was 0.4 mg/L (≈ 0.965 µM); in assay [2], 0.1 mg/L (≈ 0.241 µM); in assay [3], 25 mg/L (≈ 60.3 µM); in assay [4] (setting [8]), 6.3 mg/L (≈ 15.2 µM); in assay [5] it was 0.8 mg/L (≈ 1.93 µM); in assay [6], under 200 mg/L. The compound further displayed an MIC in assay [7] of 50 mg/L (≈ 121 µM).

As usually defined, the MIC is the least concentration at which growth counts as inhibited.
